{
  "source": "ChEMBL document CHEMBL5154810",
  "about": "“Development of Potent Immune Modulators Targeting Stimulator of Interferon Genes Receptor” (J Med Chem, 2022)",
  "key": {"CT26": {"tested_on": "CT26", "test": "Antitumor immunity activity against mouse CT26 cells xenografted in BALB/c mouse model assessed as tumor growth inhibition at 1.5 mg/kg, iv measured after 8 days", "assay_type": "functional, organism-based", "conditions": "time 8.0 day"}, "Cytochrome P450 2C9": {"target": "Cytochrome P450 2C9 (Homo sapiens, UniProt P11712)", "sequence (P11712 whole entry)": "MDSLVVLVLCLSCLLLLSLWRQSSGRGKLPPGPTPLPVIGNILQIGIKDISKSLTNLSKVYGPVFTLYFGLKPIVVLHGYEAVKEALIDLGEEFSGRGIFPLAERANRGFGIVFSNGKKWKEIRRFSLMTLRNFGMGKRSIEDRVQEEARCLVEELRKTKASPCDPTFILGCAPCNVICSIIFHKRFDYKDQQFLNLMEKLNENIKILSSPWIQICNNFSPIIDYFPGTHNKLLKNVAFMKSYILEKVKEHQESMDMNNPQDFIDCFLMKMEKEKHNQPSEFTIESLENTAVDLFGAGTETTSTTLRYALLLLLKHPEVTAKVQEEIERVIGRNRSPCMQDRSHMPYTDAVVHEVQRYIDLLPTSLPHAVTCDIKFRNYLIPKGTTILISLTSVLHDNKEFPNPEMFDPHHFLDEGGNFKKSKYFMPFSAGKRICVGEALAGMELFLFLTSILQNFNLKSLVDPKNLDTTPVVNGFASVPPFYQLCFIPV", "test": "Inhibition of CYP2C9 in human liver microsomes tolbutamide as cocktail probe substrate preincubated for 5 mins followed by NADPH addition and measured after 30 mins by HPLC-MS/MS analysis", "assay_type": "ADME, Microsome"}, "RAW264.7": {"tested_on": "RAW264.7", "test": "Activation of NF-kappaB mediated pro-inflammatory effector proteins in mouse RAW264.7 cells at 100 to 500 nM for incubated for 3 hrs by western blot analysis", "assay_type": "cell-based", "conditions": "filed as activator, dose 100-500 nM"}, "[1]": {"target": "T1, Stimulator of interferon genes protein (Homo sapiens, UniProt Q86WV6)", "T1 sequence (Q86WV6 whole entry)": "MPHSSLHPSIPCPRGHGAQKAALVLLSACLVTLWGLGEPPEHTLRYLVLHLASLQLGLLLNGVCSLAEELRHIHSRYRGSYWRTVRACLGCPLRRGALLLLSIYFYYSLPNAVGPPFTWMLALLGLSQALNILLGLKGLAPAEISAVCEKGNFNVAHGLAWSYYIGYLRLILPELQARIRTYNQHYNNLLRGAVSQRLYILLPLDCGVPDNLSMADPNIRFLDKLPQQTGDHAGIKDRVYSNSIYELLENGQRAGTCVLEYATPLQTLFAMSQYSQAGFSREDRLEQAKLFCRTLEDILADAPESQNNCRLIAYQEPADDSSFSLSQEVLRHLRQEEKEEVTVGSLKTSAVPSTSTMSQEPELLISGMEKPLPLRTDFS", "test": "Activation of STING dependent immune response in wild type human THP1-Dual cells assessed as induction of IFN-beta secretion at 1.28 to 3.2 nM measured after 24 hrs by ELISA", "assay_type": "cell-based", "conditions": "filed as activator, dose 1.28-3.2 nM"}, "[2]": {"target": "T2, Stimulator of interferon genes protein (Mus musculus) (UniProt Q3TBT3)", "T2 sequence (whole entry)": "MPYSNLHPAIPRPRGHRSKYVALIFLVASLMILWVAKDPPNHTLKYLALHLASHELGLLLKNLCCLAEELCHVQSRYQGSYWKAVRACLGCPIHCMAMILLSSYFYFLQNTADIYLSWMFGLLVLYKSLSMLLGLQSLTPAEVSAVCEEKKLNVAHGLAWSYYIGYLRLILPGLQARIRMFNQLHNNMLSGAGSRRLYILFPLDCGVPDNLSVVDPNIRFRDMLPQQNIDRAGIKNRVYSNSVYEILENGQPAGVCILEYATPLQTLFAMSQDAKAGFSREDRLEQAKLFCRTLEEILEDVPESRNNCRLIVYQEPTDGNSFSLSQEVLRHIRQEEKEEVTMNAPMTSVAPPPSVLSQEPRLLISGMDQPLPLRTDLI", "test": "Activation of STING mediated immune response in mouse RAW264.7 cells assessed as induction of IP-10 secretion measured after 24 hrs by ELISA", "assay_type": "cell-based", "conditions": "filed as activator, dose 0.32-5000 nM, DDE = dose-dependent effect"}, "[3]": {"target": "T1, Stimulator of interferon genes protein", "test": "Binding affinity to STING in human THP-1 cells assessed as thermal stabilization at 48 to 55 degC at 100 nM incubated for 4 hrs by western blotting based CETSA assay", "assay_type": "cell-based", "conditions": "filed as activator"}, "[4]": {"target": "T1, Stimulator of interferon genes protein", "test": "Activation of STING pathway in human THP1-cells assessed as increase in STAT1 phosphorylation at 2 nM incubated for 6 hrs by Western blotting analysis", "assay_type": "cell-based", "conditions": "THP-1, filed as activator"}, "[5]": {"test": "Stability in mouse plasma assessed as parent compound remaining at 5 uM measured after 4 hrs by HPLC-MS/MS analysis", "assay_type": "ADME, cell-free", "conditions": "read-out: Stability"}, "[6]": {"target": "Voltage-gated inwardly rectifying potassium channel KCNH2 (Homo sapiens, UniProt Q12809)", "sequence (Q12809 whole entry)": "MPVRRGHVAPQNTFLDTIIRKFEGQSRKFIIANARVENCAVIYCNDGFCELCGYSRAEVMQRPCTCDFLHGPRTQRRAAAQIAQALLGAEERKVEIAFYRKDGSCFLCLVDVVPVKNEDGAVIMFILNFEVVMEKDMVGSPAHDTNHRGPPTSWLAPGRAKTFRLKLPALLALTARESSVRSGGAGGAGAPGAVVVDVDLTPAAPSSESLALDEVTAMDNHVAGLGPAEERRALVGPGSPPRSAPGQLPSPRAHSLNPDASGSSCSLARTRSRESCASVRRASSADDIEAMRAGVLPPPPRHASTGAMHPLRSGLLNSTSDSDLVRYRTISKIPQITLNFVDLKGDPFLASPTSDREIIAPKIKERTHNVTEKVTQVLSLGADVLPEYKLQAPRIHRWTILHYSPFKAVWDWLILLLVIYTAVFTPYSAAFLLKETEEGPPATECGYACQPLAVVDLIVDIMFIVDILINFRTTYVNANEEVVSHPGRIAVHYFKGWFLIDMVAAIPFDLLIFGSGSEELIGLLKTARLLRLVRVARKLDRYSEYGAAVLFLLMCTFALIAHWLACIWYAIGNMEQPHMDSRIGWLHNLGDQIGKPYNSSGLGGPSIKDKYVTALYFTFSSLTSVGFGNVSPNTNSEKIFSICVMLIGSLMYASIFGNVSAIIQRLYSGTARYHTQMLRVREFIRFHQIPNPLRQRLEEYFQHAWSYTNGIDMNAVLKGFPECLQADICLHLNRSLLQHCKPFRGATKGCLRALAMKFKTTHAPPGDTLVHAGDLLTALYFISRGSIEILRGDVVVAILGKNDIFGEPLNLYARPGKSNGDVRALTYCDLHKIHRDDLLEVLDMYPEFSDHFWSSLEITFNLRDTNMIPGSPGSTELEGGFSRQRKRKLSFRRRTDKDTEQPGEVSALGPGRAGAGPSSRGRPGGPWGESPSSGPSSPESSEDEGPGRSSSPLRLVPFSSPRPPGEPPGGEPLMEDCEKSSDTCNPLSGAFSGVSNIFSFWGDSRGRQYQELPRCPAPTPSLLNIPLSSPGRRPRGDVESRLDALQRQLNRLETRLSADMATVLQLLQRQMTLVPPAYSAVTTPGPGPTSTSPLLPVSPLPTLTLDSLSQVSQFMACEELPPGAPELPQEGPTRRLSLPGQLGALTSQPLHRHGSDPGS", "test": "Inhibition of hERG by patch clamp assay", "assay_type": "toxicity"}, "Cytochrome P450 1A2": {"target": "T3, Cytochrome P450 1A2 (Homo sapiens, UniProt P05177)", "T3 sequence (P05177 whole entry)": "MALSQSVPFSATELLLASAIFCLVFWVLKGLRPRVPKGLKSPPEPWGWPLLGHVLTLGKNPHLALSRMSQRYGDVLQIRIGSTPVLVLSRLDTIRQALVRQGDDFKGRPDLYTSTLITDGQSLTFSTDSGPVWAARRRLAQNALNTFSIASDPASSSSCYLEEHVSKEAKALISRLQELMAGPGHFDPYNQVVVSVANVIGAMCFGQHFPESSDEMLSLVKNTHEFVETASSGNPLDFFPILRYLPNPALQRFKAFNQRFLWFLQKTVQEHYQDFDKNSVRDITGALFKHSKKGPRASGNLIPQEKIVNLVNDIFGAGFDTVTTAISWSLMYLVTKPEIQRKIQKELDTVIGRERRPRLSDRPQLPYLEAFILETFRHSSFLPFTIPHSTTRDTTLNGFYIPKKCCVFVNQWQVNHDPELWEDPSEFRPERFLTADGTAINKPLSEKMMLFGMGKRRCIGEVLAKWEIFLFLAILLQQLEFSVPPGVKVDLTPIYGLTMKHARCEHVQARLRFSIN", "test": "Inhibition of CYP1A2 in human liver microsomes using phenacetin as cocktail probe substrate preincubated for 5 mins followed by NADPH addition and measured after 30 mins by HPLC-MS/MS analysis", "assay_type": "ADME, Microsome"}, "THP-1 [7]": {"tested_on": "THP-1", "test": "[…] of IFNB in human THP-1 cells at 100 nM measured after 18 hrs by RT-PCR analysis", "assay_type": "functional, cell-based"}, "[8]": {"test": "Toxicity in BALB/c syngenic mouse bearing CT26 cells assessed as effect on body weight at 0.015 to 1.5 mg/kg, iv measured every 2 to 3 days for 17 days", "assay_type": "organism-based", "conditions": "in vivo, 408 h, dose 0.015-1.5 mg/kg, time 17 day"}, "Mus musculus [9]": {"tested_on": "Mus musculus", "test": "Upregulation of IFN-beta in BALB/c mouse serum at 1.5 mg/kg, iv measured after 4 hrs by ELISA", "assay_type": "functional, organism-based"}, "Mus musculus [10]": {"tested_on": "Mus musculus", "test": "Upregulation of IL-6 in BALB/c mouse serum at 1.5 mg/kg, iv measured after 4 hrs by ELISA", "assay_type": "functional, organism-based"}, "[11]": {"target": "T1, Stimulator of interferon genes protein", "test": "Activation of STING pathway in human THP1-cells assessed as increase in IRF3 phosphorylation at 2 nM incubated 6 hrs by Western blotting analysis", "assay_type": "cell-based", "conditions": "THP-1, filed as activator"}, "Cytochrome P450 2C19": {"target": "Cytochrome P450 2C19 (Homo sapiens, UniProt P33261)", "sequence (P33261 whole entry)": "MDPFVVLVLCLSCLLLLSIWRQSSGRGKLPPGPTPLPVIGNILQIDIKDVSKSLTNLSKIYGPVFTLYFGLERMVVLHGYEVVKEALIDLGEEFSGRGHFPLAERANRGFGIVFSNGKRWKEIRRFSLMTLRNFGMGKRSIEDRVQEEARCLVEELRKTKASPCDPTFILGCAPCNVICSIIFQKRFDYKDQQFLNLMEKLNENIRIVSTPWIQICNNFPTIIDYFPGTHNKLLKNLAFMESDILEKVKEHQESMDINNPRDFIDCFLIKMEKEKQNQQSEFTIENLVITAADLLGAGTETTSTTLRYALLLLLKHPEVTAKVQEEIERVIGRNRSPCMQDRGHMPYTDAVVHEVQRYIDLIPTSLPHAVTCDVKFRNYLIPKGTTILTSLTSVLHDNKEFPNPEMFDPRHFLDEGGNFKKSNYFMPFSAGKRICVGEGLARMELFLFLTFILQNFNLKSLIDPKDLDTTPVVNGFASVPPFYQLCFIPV", "test": "Inhibition of CYP2C19 in human liver microsomes using S-mephenytoin as cocktail probe substrate preincubated for 5 mins followed by NADPH addition and measured after 30 mins by HPLC-MS/MS analysis", "assay_type": "ADME, Microsome"}, "THP-1 [12]": {"tested_on": "THP-1", "test": "Upregulation of IRF7 in human THP-1 cells at 100 nM measured after 6 to 18 hrs by RT-PCR analysis", "assay_type": "functional, cell-based", "conditions": "time 6-18 hrs"}},
  "note": "Active and inactive are the calls of the source. The calls are words filed in the database; no cut-off is given here.",
  "data": [
    {"smiles": "CCn1nc(C)cc1C(=O)Nc1nc2cc(C(N)=O)cc(OC)c2n1C/C=C/Cn1c(NC(=O)c2cc(C)nn2CC)nc2cc(C(N)=O)cc(OCCCNC(=O)OC(C)(C)C)c21", "values": [
      {"measurement": "Activity", "setting": "CT26", "result": "Active"},
      {"measurement": "IC50", "setting": "Cytochrome P450 2C9", "result": "> 100", "unit": "µM"},
      {"measurement": "Activity", "setting": "RAW264.7", "result": "Active"},
      {"measurement": "Activity", "setting": "[1]", "result": "Active"},
      {"measurement": "Activity", "setting": "[2]", "result": "Dde"},
      {"measurement": "Activity", "setting": "[3]", "result": "Active"},
      {"measurement": "Activity", "setting": "[4]", "result": "Active"},
      {"measurement": "remaining at 4 h, 5 µM", "setting": "[5]", "result": "> 99", "unit": "%"},
      {"measurement": "IC50", "setting": "[6]", "result": "> 50", "unit": "µM"},
      {"measurement": "IC50", "setting": "Cytochrome P450 1A2", "result": "> 100", "unit": "µM"},
      {"measurement": "Activity", "setting": "THP-1 [7]", "result": "Active"},
      {"measurement": "Activity", "setting": "[8]", "result": "Non-Toxic"},
      {"measurement": "Activity", "setting": "Mus musculus [9]", "result": "Active"},
      {"measurement": "Activity", "setting": "Mus musculus [10]", "result": "Active"},
      {"measurement": "Activity", "setting": "[11]", "result": "Active"},
      {"measurement": "IC50", "setting": "Cytochrome P450 2C19", "result": "> 100", "unit": "µM"},
      {"measurement": "Activity", "setting": "THP-1 [12]", "result": "Active"}
    ]}
  ]
}
